Reference: patent publication US7049069B2, “Detecting and treating reproductive tract disorders” (University of Florida, priority 2001, dated 2006)

What was measured:
Assay type in all cases: cell-based, human
[1] = tested on: IL-15 expression in endometrial epithelial cells; assay: Effect of ovarian steroids on IL-15 expression in endometrial epithelial cells (quantitative RT-PCR, ELISA); settings: for IL-15 expression, mRNA and protein level (summary statement): endometrial epithelial cells; for IL-15 expression: epithelial cells, various time points
Procedure: (§1) Cells. Uterine tissue was collected and endometrial stromal cells and their culture conditions were isolated as described previously. Tang et al., Endocrinology 135:450, 1994. The isolated glandular epithelial and stromal cells were grown as monolayers in DMEM-Ham's F-12 (1:1, v/v) supplemented with 10% fetal bovine serum (FBS). Their purity and homogeneity were determined immunocytochemically by the use of monoclonal antibodies to human desmin, smooth muscle α-actin, cytokeratin 19 and vimentin. Ovarian Steroids. To determine the effect of ovarian steroids regulate IL-13 and IL-15 expression in endometrial epithelial and stromal cells, cells were subcultured in 6-well dishes at an approximate density of at 10^6 cells/well, and incubated with phenol-free media containing 10% charcoal-stripped FBS for 48 hrs. The cells were made quiescent under a serum-free condition for 24 hrs, and then treated with E2 (17 β estradiol), MPA (medroxyprogesterone acetate) or E2+MPA either alone or in appropriate combinations, added to phenol-free medium containing 2% charcoal-stripped FBS (cFBS) (Hyclone, Logan, Utah). The level of IL-13 and IL-15 mRNA and protein was determined as described above after appropratie time intervals using quantitative RT-PCR and ELISA.

[2] = tested on: IL-15 expression in endometrial stromal cells; assay: Effect of ovarian steroids on IL-15 expression in endometrial stromal cells (quantitative RT-PCR, ELISA); settings: for IL-15 expression, mRNA and protein level (summary statement): endometrial stromal cells; for IL-15 expression: stromal cells, various time points
Procedure: as §1

[3] = tested on: IL-13 expression in endometrial stromal cells; assay: Effect of ovarian steroids on IL-13 expression in endometrial stromal cells (quantitative RT-PCR, ELISA); settings: for IL-13 expression, mRNA and protein level (summary statement): endometrial stromal cells; for IL-13 expression compared to control cells: stromal cells, various time points (e.g. 4, 6, 24 and 36 h after steroid addition)
Procedure: as §1

[4] = tested on: endometrial stromal cells; assay: 3H-thymidine incorporation and cell proliferation (MTT) assay, stromal cells
Procedure: (§2) Cells. Uterine tissue was collected and endometrial stromal cells and their culture conditions were isolated as described previously. Tang et al., Endocrinology 135:450, 1994. The isolated glandular epithelial and stromal cells were grown as monolayers in DMEM-Ham's F-12 (1:1, v/v) supplemented with 10% fetal bovine serum (FBS). Their purity and homogeneity were determined immunocytochemically by the use of monoclonal antibodies to human desmin, smooth muscle α-actin, cytokeratin 19 and vimentin.
(§3) ^3H-Thymidine Incorporation and Cell Proliferation Assay. Endometrial epithelial and stromal cells were cultured either in 24- or 96-well dishes at approximate density of 2.5×10^5 and 2.5×10^4 cell/well, respectively, in the presence of 10% FBS for 48 h, they were then made quiescent in serum-free condition for 48 h as previously described. Tang et al., supra. The quiescent cells were incubated either in serum-free, or 2% FBS supplemented media, in the presence of appropriate concentrations of IL-13 and/or IL-15 and 2 μCi/ml ^3H-thymidine for 48 h. The rate of incorporated ^3H-thymidine determined as previously described. Tang et al., supra. Cell proliferation assays were preformed by seeding epithelial and stromal cells in 96-well microplates or 24 well dishes, respectively, as described above and cultured in the presence of appropriate concentrations of IL-13 and IL-15 in the presence or absence of 2% FBS. After 48 h the cells were washed and incubated with a dye solution composed of 3-(4,5-dimethylthiazol-2-yl)-2,5-diphenyltetrazolium bromide (MTT) for 4 h at 37° C., solubilized using Promega Cell-Titer assay, and the optical density was measured using Thermomax microplate reader (Molecular Devices) at 570 nm as previously described (Tang et al., supra).

[5] = tested on: IL-13 expression in endometrial epithelial cells; assay: Effect of ovarian steroids on IL-13 expression in endometrial epithelial cells (quantitative RT-PCR, ELISA); settings: for IL-13 expression, mRNA and protein level (summary statement): endometrial epithelial cells; for IL-13 expression compared to control cells: epithelial cells
Procedure: as §1

[6] = tested on: endometrial epithelial cells; assay: 3H-thymidine incorporation and cell proliferation (MTT) assay, epithelial cells
Procedure: as §2, §3

[7] = tested on: TNFα receptor type I expression in epithelial cells; assay: Effect of IL-13 and IL-15 on TNFα receptor type I expression in epithelial cells
Procedure: as §2
(§4) To determine whether IL-13 and IL-15 alter the expression of tumor necrosis factor alpha receptor, the stromal and epitheleal cells (isolated as described in Example3) were cultured, made quiescent, and then treated with IL-13 and IL-15 at appropriate concentration added to medium containing 2% cFBS. After specific time intervals the culture condition media were collected and assay for TNF-α receptor type I as previously described (Faber et al., Obstet Gynecol 98:668–673, 2001; Chegini et al., J Soc Gynecol Invest 6. 154–157, 1999) using ELISA and comparison to known concentrations of standard (R & D system).

[8] = tested on: TNFα receptor type I expression in stromal cells; assay: Effect of IL-13 and IL-15 on TNFα receptor type I expression in stromal cells
Procedure: as §2, §4

Compound: CC(=O)O[C@]1(C(C)=O)CC[C@H]2[C@@H]3C[C@H](C)C4=CC(=O)CC[C@]4(C)[C@H]3CC[C@@]21C [MPA, medroxyprogesterone acetate]
- IL-15 expression, mRNA and protein level (summary statement) [1]: modulate
- IL-15 expression [1]: statistically significant increase
- IL-15 expression, mRNA and protein level (summary statement) [2]: modulate
- IL-15 expression [2]: statistically significant increase
- IL-13 expression, mRNA and protein level (summary statement) [3]: modulate
- IL-13 expression compared to control cells [3]: statistically significant increase
- 3H-thymidine incorporation compared to control cells [4]: modulated
- cell proliferation compared to control cells [4]: modulated
- IL-13 expression, mRNA and protein level (summary statement) [5]: modulate
- IL-13 expression compared to control cells ([5]; 24 and 36 h): statistically significant increase
- IL-13 expression compared to control cells ([5]; 6 h): statistically significant increase
- 3H-thymidine incorporation compared to control cells [6]: modulated
- cell proliferation compared to control cells [6]: modulated

Compound: C[C@]12CC[C@@H]3c4ccc(O)cc4CC[C@H]3[C@@H]1CC[C@@H]2O [E2, 17 β estradiol]
- IL-15 expression, mRNA and protein level (summary statement) [1]: modulate
- IL-15 expression [1]: statistically significant increase
- IL-15 expression, mRNA and protein level (summary statement) [2]: modulate
- IL-15 expression [2]: statistically significant increase
- IL-13 expression, mRNA and protein level (summary statement) [3]: modulate
- IL-13 expression compared to control cells [3]: statistically significant increase
- 3H-thymidine incorporation compared to control cells [4]: modulated
- cell proliferation compared to control cells [4]: modulated
- IL-13 expression, mRNA and protein level (summary statement) [5]: modulate
- IL-13 expression compared to control cells ([5]; 24 and 36 h): statistically significant increase
- 3H-thymidine incorporation compared to control cells [6]: modulated
- cell proliferation compared to control cells [6]: modulated

Compound: IL-13: cytokine interleukin-13 added to stromal and epithelial cell cultures
- TNFα receptor type I mRNA production ([7]; 2, 4 and 6 h): increased
- TNFα receptor type I protein expression ([7]; 36 h): statistically significant increase
- TNFα receptor type I protein expression ([8]; 24 and 36 h): statistically significant increase

Compound: IL-15: cytokine interleukin-15 added to stromal and epithelial cell cultures
- TNFα receptor type I mRNA expression compared to control cells ([8]; 6 h): marked increase
- TNFα receptor type I protein expression ([8]; 36 h): statistically significant increase
